Laboratory results reported in patent US20130324489A1, “NEW ANTIFUNGAL COMPOSITIONS” (DSM IP ASSETS B.V., priority 2011, published 2013).
Where “and” joins values, the source holds several entries; their conditions need not be identical. Equal entries are not always repeated.

System: Botrytis cinerea
Assay: Treatment of wounded strawberries inoculated with Botrytis cinerea (dip, mould growth)
Assay type: in vivo
Conditions: 20° C.
Experimental: Ten fresh, organic strawberries were used per treatment. Each strawberry was wounded with a 0.5 mm long cut and each wound was inoculated with 10 μl of a Botrytis cinerea suspension containing 1×10^5 of spores/ml. […] The antifungal composition also comprised 3.1% (w/w) beeswax, 0.76% (w/w) glycerol, 0.66% (w/w) polyoxyethylene sorbitan monostearate (Tween 60), 0.03% (w/w) methylhydroxyethyl-cellulose (MHEC), 0.02% (w/w) xanthan gum, 0.02% (w/w) anti-foaming agent, 0.15% (w/w) citric acid and 0.01% (w/w) potassium sorbate. The pH of the compositions was 4. A composition without natamycin or procymidone was used as control. The treated strawberries were incubated in a closed box in the dark at 20° C. for 13 days.
During incubation, mould growth on the strawberries was assessed in a twofold manner: (i) the number of moulded strawberries per total of 10 strawberries was counted; and (ii) the antifungal activity (in %) of the individual and combined active ingredients was determined by calculating the reduction in mould growth observed on the strawberries treated with the antifungal composition in comparison to the mould growth on the strawberries treated with the control composition. The expected antifungal activity (E in %) of the combined antifungal composition comprising both active ingredients was calculated according to the Colby equation (Colby, 1967): […]
wherein X and Y are the observed antifungal activities (in %) of the individual active ingredients X and Y, respectively. If the observed antifungal activity (O in %) of the combination exceeds the expected antifungal activity (E in %) of the combination and the synergy factor O/E is thus >1.0, the combined application of the active ingredients leads to a synergistic antifungal effect.
The treated strawberries were assessed on mould growth after 4, 5 and 7 days of incubation according to the two methods described in Example 3.
The treated strawberries were incubated for 9 days and, as of day 5, assessed on mould growth daily. The antifungal activity (in %) of the individual and combined active ingredients was determined according to the method described in Example 3.
During incubation, the treated strawberries were assessed on mould growth according to the two methods described in Example 3.

[1] = 250 ppm natamycin, 250 ppm procymidone or both, day 4
[2] = 250 ppm natamycin, 250 ppm procymidone or both, day 5
[3] = 250 ppm natamycin, 250 ppm procymidone or both, day 6
[4] = 250 ppm natamycin, 250 ppm procymidone or both, day 7
[5] = 250 ppm natamycin, 250 ppm procymidone or both, day 8
[6] = 250 ppm natamycin, 250 ppm procymidone or both, day 9
[7] = 250 ppm natamycin, 250 ppm procymidone or both, day 10
[8] = 250 ppm natamycin, 250 ppm procymidone or both, day 12
[9] = 250 ppm natamycin, 500 ppm procymidone or both, day 5
[10] = 250 ppm natamycin, 500 ppm procymidone or both, day 6
[11] = 250 ppm natamycin, 500 ppm procymidone or both, day 7
[12] = 250 ppm natamycin, 500 ppm procymidone or both, day 8
[13] = 250 ppm natamycin, 500 ppm procymidone or both, day 9
[14] = 500 ppm natamycin, 1000 ppm procymidone or both, day 4
[15] = 500 ppm natamycin, 1000 ppm procymidone or both, day 5
[16] = 500 ppm natamycin, 1000 ppm procymidone or both, day 7
[17] = 500 ppm natamycin, 2000 ppm procymidone or both, day 5
[18] = 500 ppm natamycin, 2000 ppm procymidone or both, day 6
[19] = 500 ppm natamycin, 2000 ppm procymidone or both, day 7
[20] = 500 ppm natamycin, 2000 ppm procymidone or both, day 8
[21] = 500 ppm natamycin, 2000 ppm procymidone or both, day 8-10
[22] = 500 ppm natamycin, 2000 ppm procymidone or both, day 9
[23] = 500 ppm natamycin, 2000 ppm procymidone or both, day 10
[24] = 500 ppm natamycin, 2000 ppm procymidone or both, day 12
[25] = 500 ppm natamycin, 2000 ppm procymidone or both, day 13

Compound | Number of moulded strawberries/total number of 10 strawberries [1] | Observed antifungal activity O (%) [1] [%] | Number of moulded strawberries/total number of 10 strawberries [2] | Observed antifungal activity O (%) [2] [%] | Number of moulded strawberries/total number of 10 strawberries [3] | Observed antifungal activity O (%) [3] [%] | Number of moulded strawberries/total number of 10 strawberries [4] | Observed antifungal activity O (%) [4] [%] | Number of moulded strawberries/total number of 10 strawberries [5] | Observed antifungal activity O (%) [5] [%] | Number of moulded strawberries/total number of 10 strawberries [6] | Observed antifungal activity O (%) [6] [%] | Observed antifungal activity O (%) [7] [%] | Observed antifungal activity O (%) [8] [%] | Observed antifungal activity O (%) [9] [%] | Observed antifungal activity O (%) [10] [%] | Observed antifungal activity O (%) [11] [%] | Observed antifungal activity O (%) [12] [%] | Observed antifungal activity O (%) [13] [%] | Observed antifungal activity O (%) [14] [%] | further results
CC12CC1(C)C(=O)N(c1cc(Cl)cc(Cl)c1)C2=O (centres unmarked) [Procymidone, procymidone] | 10 and 10/10 | 58 | 10 and 10/10 | 41 | 10 and 10/10 | 34 | 10 and 10/10 | 31 | 10 and 10/10 | 27 | 10 and 10/10 | 13 | 10 | 5 | 39 | 26 | 20 | 20 | 17 | 69 | Number of moulded strawberries/total number of 10 strawberries [15]: 10 and 10/10; Observed antifungal activity O (%) [15]: 59%; Number of moulded strawberries/total number of 10 strawberries [16]: 10 and 10/10; Observed antifungal activity O (%) [16]: 44%; Number of moulded strawberries/total number of 10 strawberries [17]: 8 and 8/10; Observed antifungal activity O (%) [17]: 63%; Number of moulded strawberries/total number of 10 strawberries [18]: 9 and 9/10; Observed antifungal activity O (%) [18]: 51%; Number of moulded strawberries/total number of 10 strawberries [19]: 10 and 10/10; Observed antifungal activity O (%) [19]: 38%; Observed antifungal activity O (%) [20]: 35%; Number of moulded strawberries/total number of 10 strawberries [21]: 10 and 10/10; Observed antifungal activity O (%) [22]: 23%; Observed antifungal activity O (%) [23]: 13%; Number of moulded strawberries/total number of 10 strawberries [24]: 10 and 10/10; Observed antifungal activity O (%) [24]: 2%; Observed antifungal activity O (%) [25]: 0%
C[C@@H]1C/C=C/C=C/C=C/C=C/[C@H](O[C@@H]2O[C@H](C)[C@@H](O)[C@H](N)[C@@H]2O)C[C@@H]2O[C@](O)(C[C@@H](O)C[C@H]3O[C@@H]3/C=C/C(=O)O1)C[C@H](O)[C@H]2C(=O)O [Natamycin, natamycin] | 4 and 4/10 | 53 | 7 and 7/10 | 34 | 9 and 9/10 | 15 | 10 and 10/10 | 11 | 10 and 10/10 | 10 | 10 and 10/10 | 5 | 3 | 0 | 34 | 15 | 11 | 10 | 5 | 36 | Number of moulded strawberries/total number of 10 strawberries [15]: 9 and 9/10; Observed antifungal activity O (%) [15]: 12%; Number of moulded strawberries/total number of 10 strawberries [16]: 10 and 10/10; Observed antifungal activity O (%) [16]: 7%; Number of moulded strawberries/total number of 10 strawberries [17]: 9 and 9/10; Observed antifungal activity O (%) [17]: 12%; Number of moulded strawberries/total number of 10 strawberries [18]: 9 and 9/10; Observed antifungal activity O (%) [18]: 4%; Number of moulded strawberries/total number of 10 strawberries [19]: 10 and 10/10; Observed antifungal activity O (%) [19]: 7%; Observed antifungal activity O (%) [20]: 5%; Number of moulded strawberries/total number of 10 strawberries [21]: 10 and 10/10; Observed antifungal activity O (%) [22]: 3%; Observed antifungal activity O (%) [23]: 3%; Number of moulded strawberries/total number of 10 strawberries [24]: 10 and 10/10; Observed antifungal activity O (%) [24]: 0%; Observed antifungal activity O (%) [25]: 0%
